Broadly, the pIC50 is −log10 of the IC50, conventionally taken in molar units.

pIC50: −log10 of the molar value.

Experimental findings from paper doi:10.1101/2025.01.13.632836v7 (biorxiv, 2026) are described below.

The target in this assay is hERG potassium channel (Homo sapiens, UniProt Q12809). Put plainly: fluorescence polarization, fluorescent tracer displacement. Format: binding. (In general: Fluorescence polarisation rises when a labelled molecule tumbles more slowly, as on binding a larger partner.)
Sequence of hERG potassium channel (Q12809 whole entry): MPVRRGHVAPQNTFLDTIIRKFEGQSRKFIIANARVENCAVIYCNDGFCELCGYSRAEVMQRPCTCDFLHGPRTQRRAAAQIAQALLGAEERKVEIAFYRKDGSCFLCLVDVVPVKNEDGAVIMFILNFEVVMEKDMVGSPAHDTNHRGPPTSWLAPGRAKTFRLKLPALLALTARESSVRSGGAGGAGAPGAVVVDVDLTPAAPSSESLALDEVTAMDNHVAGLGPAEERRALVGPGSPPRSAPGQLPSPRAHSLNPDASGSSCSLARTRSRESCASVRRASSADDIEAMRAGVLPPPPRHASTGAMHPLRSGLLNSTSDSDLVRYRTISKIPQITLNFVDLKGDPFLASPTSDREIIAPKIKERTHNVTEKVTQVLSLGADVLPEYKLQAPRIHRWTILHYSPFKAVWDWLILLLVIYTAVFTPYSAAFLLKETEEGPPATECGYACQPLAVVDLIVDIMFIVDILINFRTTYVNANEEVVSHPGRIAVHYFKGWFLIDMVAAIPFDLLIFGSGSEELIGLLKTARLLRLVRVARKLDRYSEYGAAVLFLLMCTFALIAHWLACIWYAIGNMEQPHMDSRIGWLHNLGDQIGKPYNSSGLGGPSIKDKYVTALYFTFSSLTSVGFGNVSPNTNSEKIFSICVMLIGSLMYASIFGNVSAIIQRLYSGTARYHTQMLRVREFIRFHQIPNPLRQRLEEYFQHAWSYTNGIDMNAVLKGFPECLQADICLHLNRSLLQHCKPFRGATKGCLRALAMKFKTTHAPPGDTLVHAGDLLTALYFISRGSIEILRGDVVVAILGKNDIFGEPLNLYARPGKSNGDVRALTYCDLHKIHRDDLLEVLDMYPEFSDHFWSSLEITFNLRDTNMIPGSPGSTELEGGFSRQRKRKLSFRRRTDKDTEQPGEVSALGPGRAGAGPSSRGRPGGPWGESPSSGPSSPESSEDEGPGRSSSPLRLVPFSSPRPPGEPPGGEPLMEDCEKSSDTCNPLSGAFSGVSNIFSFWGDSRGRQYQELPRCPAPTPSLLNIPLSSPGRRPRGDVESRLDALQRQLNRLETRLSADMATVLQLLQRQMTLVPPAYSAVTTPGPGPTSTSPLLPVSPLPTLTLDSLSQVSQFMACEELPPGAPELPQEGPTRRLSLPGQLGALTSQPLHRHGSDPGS

In the case of `Cc1c(-c2ccc(O)cc2)n(Cc2ccc(OCCN3CCCCC3)cc2)c2ccc(O)cc12` [MDL-001], the pIC50 was 4.89.
